Experimental data taken from patent US11464753B2, “Composition for treatment of neurodegenerative disease” (WINNING THE FIGHT INC., priority 2013, dated 2022).
Entries after “also recorded” stand apart in the source; their conditions may differ.

Tests used:
[1] = tested on: patients suffering from neurodegenerative diseases; assay: Oral AKG in patients suffering from neurodegenerative diseases; assay type: in vivo, human
Text: Initial results in mutant SOD1 mice show similar benefits compared to controls, when administered one example of the composition. […] In some instances, progression of the diseases were delayed or even reversed in human patients.
In Example A of Table A a sustained release formulation of […] is preferred.
For example, an […] ([…] or […]) is included in a composition to be used by patients with a neurodegenerative disease at a baseline dosage.
Results for people with various neurodegenerative diseases have shown that a core composition taken three times daily can provide a combination of supplements that are needed by the patients.

ALS patients = assay: Administration of AKG-containing compositions to human ALS patients, observation of symptoms
Procedure: In one example, 250 mg of GABA was administered three times per day per os, 30 mg of NADH was administered twice per day sublingually, and 3 grams of AAKG were administered, initially, four times per day per os, with the dosage gradually increasing up to 18 grams, if tolerated by the patient.

Structure (SMILES)	improvement at sub-optimal dosage ([1]; AKG dosage of only six to eight grams)	symptoms when AKG was withheld ([1]; AKG withheld from a patient, then recommenced)	symptoms of neurodegenerative disease ([1]; human patients (ALS, Alzheimers, Muscular Distrophy) taking AKG)	improvement with hourly AKG (ALS patients; human patient, AKG supplement hourly during waking hours compared to four times per day)	symptoms of ALS after withdrawal of AKG (ALS patients; withdrawal for a short period (a few days))	muscle tone and muscle spasticity (ALS patients; GABA administered as a supplement, patients with neurodegenerative diseases such as ALS)
O=C(O)CCC(=O)C(=O)O [AKG, alpha-ketoglutaric acid]	some improvement	symptoms returned	fewer symptoms of the diseases; also recorded: marked, obvious improvements	marked improvement	return of symptoms of ALS	
NCCCC(=O)O [GABA, gamma aminobutyric acid]						restore muscle tone; also recorded: diminished muscle spasticity
